Results: patent publication US20190062788A1, “LIPID NANOPARTICLE METHODS AND COMPOSITIONS FOR PRODUCING ENGINEERED ERYTHROID CELLS” (RUBIUS THERAPEUTICS, INC., priority 2017, published 2019)
No end group written: not given here. *: point of attachment. FITC = O=C1OC2(c3ccc(O)cc3Oc3cc(O)ccc32)c2ccc(NC(=S)*)cc21

What was measured:
erythroid cells = assay: Uptake of labelled transferrin receptor-binding peptide into erythroid cells, fluorescence microscopy; assay type: cell-based; conditions: added at day M2, about 1 mg/ml, 72 hours, 37 degrees
Description: Uptake of a transferrin-binding peptide was also tested. Wild-type CD34+ cells were differentiated as described herein. At day M2 of maturation/differentiation, FITC-LC-HAIYPRH (a fluorescently labelled peptide that binds the transferrin receptor) was added to a culture of about 0.5×10^6 cells at about 1 mg/ml. The labeled peptide was obtained from Anapsec. The cells were cultured in the presence of the labeled peptide for 72 hours at 37 degrees. Internalization of the FITC-LC-HAIYPRH labeled polypeptide by erythroid cells was confirmed by fluorescence microscopy.

[1] = system: erythroid cells undergoing maturation; assay: Uptake of Alexa488-labeled transferrin by erythroid cells during maturation; assay type: cell-based; conditions: 1 mg/ml in complete media, 0-24 hours, 37 or 4 degrees; days M1, M4, M5, M6
Description: In this example, transferrin receptor (CD71; also referred to herein as TRF) was evaluated for internalization into erythroid cells undergoing maturation. Briefly, wild-type CD34+ cells were differentiated as described herein. Samples of about 0.5×10^6 cells were taken on days M1, M4, M5, and M6 of maturation. […] The cells were incubated with the TRF-Alexa488 at a concentration of 1 mg/ml in complete media for 0-24 hours at 37 degrees or 4 degrees as indicated in FIG. 2.

Substance | Internalization of labeled polypeptide by erythroid cells (erythroid cells) | Transferrin internalization [1]
FITC-LC-HAIYPRH: a fluorescently labelled peptide that binds the transferrin receptor, obtained from Anapsec ({FITC-LC}-HAIYPRH) | confirmed | –
TFR-Alexa488: Alexa488-labeled transferrin obtained from Thermo Fisher Scientific (#T13342) | – | active throughout the maturation phase
